Patent US20260315446A1, “ANTIFUNGAL COMPOUNDS AND USES THEREOF” (priority 2023, published 2026)
Values after ≈ are worked out from the molar mass of the structure shown. “Also recorded” adds a separate entry of the source. Like-named read-outs stand apart in the source and are kept apart here.

Key:
[1] = test system: IL-2 expression in primary murine CD4+ T cells; experiment: In vitro immunosuppressive activity, IL-2 expression (Example 4); format: cell-based, mouse
Protocol: Spleen and lymph nodes were collected from C57BL/6 mice and homogenized through a 40 μm filter. Pan-CD4^+ T cells were enriched using MagniSort Mouse CD4 T cell Kit (eBioscience) according to the manufacturer's protocol. Thereafter, CD4+CD25−CD44lo CD62Lhi naïve T cells were FACS-sorted. The naïve CD4+ T cells were grown in Iscove's Modified Dulbecco's Medium (IMDM) supplemented with glutamine, penicillin, streptomycin, gentamicin, 2-mercaptoethanol, and 10% FBS. Cells were then cultured on anti-hamster IgG coated plates in the presence of hamster anti-CD3 epsilon and anti-CD28 antibodies (BD Biosciences), neutralizing anti-IL-4 antibody (eBioscience), recombinant IL-12 (10 ng/mL), and recombinant IL-2 (50 U/mL) for 72 h. During this period, cells were grown in the presence of 2× serially diluted FK506, FK520, or analog suspended in DMSO for 72 h. During the last 4 h of culture, phorbol 12-myristate 13-acetate (PMA; Sigma), ionomycin (Sigma), and GolgiStop (BD Biosciences) were added to the culture to facilitate detection of intracellular cytokines via flow cytometry.
Live cells were stained with FITC-conjugated anti-CD4 antibody (eBioscience) and Fixable Viability Dye eFluor 506 (eBioscience) on ice, followed by fixation and permeabilization using the Foxp3 Transcription Factor Staining Kit (eBioscience). Intracellular staining was performed at room temperature using PE-conjugated anti-IL-2 antibody (eBioscience), followed by analysis with a BD LSRFortessa X-20 flow cytometer.

immunosuppression = conditions: listed as L-685,818; cited from earlier work
fungi = conditions: listed as L-685,818; cited from earlier work
C. neoformans = experiment: MIC assay (Example 4); format: cell-based, Cryptococcus neoformans; conditions: Cryptococcus neoformans
Protocol: Both JH-FK-10 and JH-FK-11 maintained in vitro antifungal activity against C. neoformans with MICs of 0.8 and 1.6 μg/mL, respectively (Table 11).
In vitro antifungal activity of FK506, FK520, and analogs was assessed in RPMI 1640 (Sigma-Aldrich) for all strains tested. Minimum inhibitory concentrations (MIC) for each drug were measured using modified Clinical and Laboratory Standards Institute (CLSI) M38-A2 and M27-A3 standard in vitro antifungal susceptibility protocols. Broth microdilution assays for MIC assessment were performed as previously described. All antifungal assays with C. neoformans were performed at 37° C.

C. neoformans strain H99 [2] = experiment: Survival during cryptococcal infection (Example 3); format: in vivo, Cryptococcus neoformans in A/J mice; conditions: 2 weeks twice daily i.p.; fluconazole 6 mg/kg, JH-FK-08 40 mg/kg; vehicle 16 days
Protocol: Finally, whether the antifungal efficacy translates into extended survival during infection was assessed. To test the impact of treatment on survival, murine survival was monitored in the cryptococcosis infection model. Following the same protocol of infection and dosing as in the fungal burden experiment, animal survival was monitored following infection and 2 weeks of intraperitoneal dosing. Fluconazole treatment extended median survival from 16 to 27 days.
(§1) C. neoformans inoculum was prepared by growing a 5-mL overnight YPD culture spinning in a tissue culture roller drum at 30° C. Cells were pelleted by centrifugation and washed in sterile PBS three times. Cell density was determined by hemocytometer, and cells were diluted to 2×10^6 cells/mL. Mice (10 to 20 g) were infected with 10^5 cells of C. neoformans H99. For inhalation infection, animals were anesthetized with isoflurane before 50 μL of inoculum was pipetted onto the upright nasal passages of each animal. Following inhalation of the inoculum, animals were monitored for post anesthesia recovery. Treatment of animals began 4 hours post infection and was continued for 14 days. Fungal burden was assessed 24 h after the final dose.
For survival curve analysis, animals were monitored until reaching defined humane end points, including social isolation, hunched posture, weight loss, lack of grooming, and labored breathing, and were then euthanized via CO2 inhalation. For fungal burden analysis, mice were euthanized following 2 weeks of treatment with a designated antifungal, vehicle, or combination. Brain, lung, and spleen were harvested from animals, weighed, and homogenized in sterile PBS using steel beads and a bead beater. Each organ homogenate was serially diluted 10-fold to 10-4 in PBS. One hundred microliters of each dilution was plated on YPD plates supplemented with YPD 50 μg/mL ampicillin and 30 μg/mL chloramphenicol, incubated at 30° C. for 2 days, and assessed for colony-forming units. CFU per organ weight was calculated and plotted using GraphPad Prism 9.

C. neoformans H99 [3] = experiment: Survival in intranasal cryptococcosis model (Example 1); format: in vivo, Cryptococcus neoformans in A/J mice; conditions: 14 days treatment; JH-FK-05 60 mg/kg, fluconazole 12 mg/kg, i.p. daily
Protocol: To verify if this reduction seen in the fungal burdens of JH-FK-05 and combination-treated animals could translate into a meaningful therapeutic effect, the survival of animals infected via the intranasal route was assessed (FIG. 8A). As in the fungal burden model, these animals received daily treatment for only 14 days. Following the termination of treatment, animals were monitored for signs of decline, lethargy, and ultimately, moribundity. Untreated animals in this model typically survive for about 3 weeks, and similar results were observed here (vehicle treatment median survival, 22 days). Corroborating the results of the fungal burden study, a significant extension of survival for both JH-FK-05 (median survival, 26 days) and fluconazole (median survival, 25 days) was observed.
Female A/J mice (3 to 4 weeks old; Jackson Laboratory) were anesthetized utilizing an isoflurane chamber. While anesthetized, […] of 2×10^6 cells/mL suspension was dripped onto the nares of mice, allowing them to inhale the full inoculum. Treatment began 3 h following infection with i.p. dosing of vehicle, 60 mg/kg JH-FK-05, 12 mg/kg fluconazole, or combination. […] After 14 days, animals were either sacrificed for fungal burden analysis or monitored for health and survival until reaching a humane endpoint. […] Statistical significance was determined using log-rank (Mantel-Cox) tests.

C. neoformans strain H99 [4] = experiment: Murine cryptococcal infection, spleen fungal burden (Example 3); format: in vivo, Cryptococcus neoformans in A/J mice; conditions: 14 days; fluconazole 6 mg/kg, JH-FK-08 40 mg/kg, i.p. twice per day
Protocol: (§2) In vivo antifungal activity and therapeutic benefit were assayed by investigating the impact of the FK520 analog on organ fungal burden during cryptococcosis. Specifically, the in vivo efficacy of JH-FK-08 on fungal burden was assessed using A/J female mice. Immunodeficient A/J mice were selected in part due to their defect in complement component five and their susceptibility to cryptococcal infection. Treatment groups included vehicle of 10% Kolliphor: ethanol (1:1) in phosphate-buffered saline (PBS), 6 mg/kg fluconazole, 40 mg/kg JH-FK-08, or the fluconazole and JH-FK-08 combination, all given via intraperitoneal (i.p.) injection twice per day beginning at 4 hours post infection. […] Mice were intranasally infected with C. neoformans strain H99, and fungal burden in the lung, spleen, and brain was assessed after 14 days of treatment.
as §1, with “For inhalation infection, animals were anesthetized with isoflurane before 50 μL of inoculum was pipetted onto the upright nasal passages of each animal.” left out, “Treatment of animals began 4 hours post infection and was continued for 14 days.” left out, “dose. […]” for “dose.”

C. neoformans strain H99 [5] = experiment: Murine cryptococcal infection, brain fungal burden (Example 3); format: in vivo, Cryptococcus neoformans in A/J mice; conditions: 14 days; fluconazole 6 mg/kg, JH-FK-08 40 mg/kg, i.p. twice per day
Protocol: as §2
as §1, with “For inhalation infection, animals were anesthetized with isoflurane before 50 μL of inoculum was pipetted onto the upright nasal passages of each animal.” left out, “Treatment of animals began 4 hours post infection and was continued for 14 days.” left out, “dose. […]” for “dose.”

C. neoformans strain H99 [6] = experiment: Murine cryptococcal infection, lung fungal burden (Example 3); format: in vivo, Cryptococcus neoformans in A/J mice; conditions: JH-FK-08 40 mg/kg
Protocol: as §2, with “[…],” for “6 mg/kg fluconazole, 40 mg/kg JH-FK-08,”, “all given via intraperitoneal (i.p.) injection twice per day beginning at 4 hours post” left out
as §1
For survival curve analysis, animals were monitored until reaching defined humane end points, including social isolation, hunched posture, weight loss, lack of grooming, and labored breathing, and were then euthanized via CO2 inhalation. […] One hundred microliters of each dilution was plated on YPD plates supplemented with YPD 50 μg/mL ampicillin and 30 μg/mL chloramphenicol, incubated at 30° C. for 2 days, and assessed for colony-forming units. CFU per organ weight was calculated and plotted using GraphPad Prism 9.

C. neoformans H99 [7] = experiment: Intranasal model of pulmonary cryptococcosis, lung fungal burden (Example 1); format: in vivo, Cryptococcus neoformans in A/J mice; conditions: day 14; fluconazole 12 mg/kg i.p. daily
Protocol: First, in the intranasal model, animals were anesthetized and infected with 10^5 cells of wild-type H99 C. neoformans via instillation in the animal's nares. These animals were monitored for 14 days and then sacrificed. This model tests the efficacy of JH-FK-05 to treat a pulmonary infection, which is the most common manifestation of early-stage cryptococcosis in patients. […] In both models, animals were treated once daily via i.p. injection beginning 3 h after infection with either vehicle, 60 mg/kg JH-FK-05, 12 mg/kg fluconazole, or a combination of the two monotherapies.
Wild-type H99 C. neoformans cells were grown overnight at 30° C. in a roller drum in yeast extract-peptone-dextrose (YPD) medium. […] H99 cells were counted with a hemacytometer and diluted to 2×10^6 cells/mL in PBS for the pulmonary model and 2×10^5 cells/mL in PBS for the disseminated model.
Female A/J mice (3 to 4 weeks old; Jackson Laboratory) were anesthetized utilizing an isoflurane chamber. […] After 14 days, animals were either sacrificed for fungal burden analysis or monitored for health and survival until reaching a humane endpoint.
Mice were euthanized by CO2 inhalation at the predetermined experimental endpoint. […] A 100-μL aliquot of each dilution was plated on antibiotic plates (YPD, 50 μg/mL ampicillin, and 30 g/mL chloramphenicol), incubated for 48 to 72 h at 30° C., and assessed for CFU. […]

## CC[C@@H]1/C=C(\C)C(O)[C@H](C)C[C@H](OC)[C@H]2O[C@@](O)(C(=O)C(=O)N3CCCC[C@H]3C(=O)O[C@H](/C(C)=C/[C@@H]3CC[C@@H](O)[C@H](OC)C3)[C@H](C)[C@@H](O)CC1=O)[C@H](C)C[C@@H]2OC (single isomer, unassigned) [JH-FK-11]
[1]
  immunosuppressive activity: detectable immunosuppressive activities; also recorded: significantly reduced for immunosuppressive activity compared to its FK506 counterpart JH-FK-10
[1]; Mus musculus, CD4+ T, Table 12
  IC50: 0.0414 µM
immunosuppression
  immunosuppression: non-immunosuppressive; also recorded: reduced for immunosuppression in vitro
fungi
  antifungal activity: robust antifungal activity; also recorded: broad-spectrum antifungal activity
C. neoformans; 37° C., Table 13, read-out: C. neoformans MIC
  MIC: 1.6 µg/mL (≈ 1.98 µM)
C. neoformans; read-out: C. neoformans MIC, 37° C., Table 11
  MIC: 3.2 µg/mL (≈ 3.96 µM)
C. neoformans; read-out: C. neoformans MIC, 37° C., Table 12
  MIC: 1.6 µg/mL (≈ 1.98 µM)

## OC(Cn1cncn1)(Cn1cncn1)c1ccc(F)cc1F [fluconazole, reference compound]
C. neoformans strain H99 [2]
  median survival: 27 days
C. neoformans H99 [3]
  median survival: 25 days
C. neoformans strain H99 [4]
  spleen fungal burden: no detectable fungal burden
C. neoformans strain H99 [5]
  brain fungal burden: no detectable fungal burden
C. neoformans strain H99 [6]; 14 days, fluconazole 6 mg/kg, i.p. twice per day
  reduction of lung fungal burden: ~ 6 fold
C. neoformans strain H99 [6]; once daily, fluconazole 12 mg/kg
  lung fungal burden reduction: limited efficacy in reducing lung fungal burden
C. neoformans H99 [7]
  lung fungal burden: did not reduce the fungal burden
